In ChEMBL document CHEMBL5523759, “Discovery of Novel HDAC3 Inhibitors with PD-L1 Downregulating/Degrading and Antitumor Immune Effects” (J Med Chem, 2024):
pIC50: −log10 of the molar value. The source made the active and inactive calls. The rule behind the calls is not given here.

Key:
Jurkat = assay: Antiproliferative activity against human Jurkat T cells assessed as reduction in cell viability measured for 48 hrs by CCK-8 assay; type: functional, cell-based
HepG2 = assay: Antiproliferative activity against human HepG2 cells assessed as reduction in cell viability measured for 48 hrs by MTT assay; type: functional, cell-based; settings: HepG2, 48 h
[1] = Antiproliferative activity against human MINO cells assessed as reduction in cell viability measured for 48 hrs by MTT assay; type: functional, cell-based
Daudi = assay: Antiproliferative activity against human Daudi cells assessed as reduction in cell viability measured for 48 hrs by MTT assay; type: functional, cell-based
Histone deacetylase 1 = Histone deacetylase 1 (Homo sapiens, UniProt Q13547); assay: Inhibition of human recombinant HDAC1 using Ac-Leu-Gly-Lys (Ac)-AMC as substrate preincubated with compound for 10 mins followed by substrate addition and measured after 45 mins by TECAN microtiter plate reader analysis
Chain of Histone deacetylase 1 (Q13547 whole entry): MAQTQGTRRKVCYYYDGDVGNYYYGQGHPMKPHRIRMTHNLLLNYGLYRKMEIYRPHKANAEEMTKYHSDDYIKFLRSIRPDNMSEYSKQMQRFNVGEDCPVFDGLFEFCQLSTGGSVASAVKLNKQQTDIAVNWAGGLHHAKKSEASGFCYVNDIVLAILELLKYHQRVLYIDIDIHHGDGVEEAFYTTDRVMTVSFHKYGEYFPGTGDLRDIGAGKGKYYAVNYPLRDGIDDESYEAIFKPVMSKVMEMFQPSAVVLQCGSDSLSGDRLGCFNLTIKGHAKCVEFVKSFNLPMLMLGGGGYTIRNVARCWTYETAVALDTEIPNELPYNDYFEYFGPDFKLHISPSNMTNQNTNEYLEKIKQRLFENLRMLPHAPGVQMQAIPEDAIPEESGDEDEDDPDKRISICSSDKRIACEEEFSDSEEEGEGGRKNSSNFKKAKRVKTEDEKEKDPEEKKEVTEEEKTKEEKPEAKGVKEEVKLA

[2] = target: T1, Protein deacetylase HDAC6 (Homo sapiens, UniProt Q9UBN7); assay: Inhibition of human recombinant HDAC6 using Ac-Leu-Gly-Lys (Ac)-AMC as substrate preincubated with compound for 10 mins followed by substrate addition and measured after 45 mins by TECAN microtiter plate reader analysis
T1 sequence (Q9UBN7 whole entry): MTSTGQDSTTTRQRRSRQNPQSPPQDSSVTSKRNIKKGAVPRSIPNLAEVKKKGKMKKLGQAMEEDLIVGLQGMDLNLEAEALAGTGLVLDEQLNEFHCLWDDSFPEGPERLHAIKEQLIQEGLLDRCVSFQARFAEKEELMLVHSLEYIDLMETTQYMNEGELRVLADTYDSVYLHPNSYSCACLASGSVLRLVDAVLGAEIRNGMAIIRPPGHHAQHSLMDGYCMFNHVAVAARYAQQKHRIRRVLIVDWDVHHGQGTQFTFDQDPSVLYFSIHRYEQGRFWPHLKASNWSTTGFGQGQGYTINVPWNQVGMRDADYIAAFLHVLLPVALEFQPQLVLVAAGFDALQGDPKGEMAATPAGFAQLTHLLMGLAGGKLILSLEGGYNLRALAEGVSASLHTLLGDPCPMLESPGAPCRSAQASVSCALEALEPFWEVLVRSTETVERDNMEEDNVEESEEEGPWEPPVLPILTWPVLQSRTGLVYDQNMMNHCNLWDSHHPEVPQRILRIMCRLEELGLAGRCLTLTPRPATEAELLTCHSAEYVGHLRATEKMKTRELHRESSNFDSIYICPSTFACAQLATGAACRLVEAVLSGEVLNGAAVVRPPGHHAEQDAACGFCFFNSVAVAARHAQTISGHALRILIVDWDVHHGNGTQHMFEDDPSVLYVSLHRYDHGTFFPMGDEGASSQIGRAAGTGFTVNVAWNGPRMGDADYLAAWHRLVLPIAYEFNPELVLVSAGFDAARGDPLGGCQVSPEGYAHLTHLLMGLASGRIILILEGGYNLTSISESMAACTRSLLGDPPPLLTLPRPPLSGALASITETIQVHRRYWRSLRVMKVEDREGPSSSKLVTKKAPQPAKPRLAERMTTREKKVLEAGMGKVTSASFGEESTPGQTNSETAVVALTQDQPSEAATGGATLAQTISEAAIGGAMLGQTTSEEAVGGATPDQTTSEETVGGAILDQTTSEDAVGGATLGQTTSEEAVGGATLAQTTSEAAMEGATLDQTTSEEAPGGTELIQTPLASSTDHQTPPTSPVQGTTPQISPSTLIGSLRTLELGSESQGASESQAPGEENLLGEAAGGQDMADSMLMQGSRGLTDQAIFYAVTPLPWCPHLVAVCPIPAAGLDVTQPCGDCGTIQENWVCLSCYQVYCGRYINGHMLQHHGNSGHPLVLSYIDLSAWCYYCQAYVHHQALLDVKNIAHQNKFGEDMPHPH

B16-F10 [3] = assay: Induction of apoptosis in mouse B16-F10 cells at 1 uM measured for 48 hrs by Annexin-V/FITC staining based flow cytometry analysis relative to control; type: functional
B16-F10 [4] = assay: Induction of apoptosis in mouse B16-F10 cells at 8 uM measured for 48 hrs by Annexin-V/FITC staining based flow cytometry analysis relative to control; type: functional
B16-F10 [5] = assay: Induction of cell cycle arrest in mouse B16-F10 cells assessed as accumulation of cells at G2/M phase measured for 48 hrs by flow cytometry analysis; type: functional, cell-based; settings: dose 0.5-4 µM
HCT-116 = assay: cells; settings: Homo sapiens, HCT-116, 48 h
Description: Antiproliferative activity against human HCT-116 cells assessed as reduction in cell viability measured for 48 hrs by MTT assay

MCF7 = assay: cells; settings: Homo sapiens, MCF7, 48 h
Description: Antiproliferative activity against human MCF7 cells assessed as reduction in cell viability measured for 48 hrs by MTT assay

SMILES	pIC50 (Jurkat)	pIC50 (HepG2)	pIC50 [1]	Activity (Daudi)	pIC50 (Histone deacetylase 1)	pIC50 [2]	Activity (B16-F10 [3]) [%]	Activity (B16-F10 [4]) [%]	Activity (B16-F10 [5])	pIC50 (HCT-116)	pIC50 (MCF7)
Nc1ccccc1NC(=O)c1ccc(-c2ncc(CNc3ccccc3)s2)cc1	6.85	6.02	7.28	Active	6.29	< 5.00	13.2	29.59	Dose-Dependent Effect	5.80	5.48
CCCNNC(=O)c1ccc(CNC(=O)c2ncc(CNc3ccccc3)s2)cc1	7.05	6.62	7.52	Active	6.14	< 5.00	31.49	71.07	Dose-Dependent Effect	6.37	5.53
